The subject of one test is FGFR1. The note with it: printed as potency 'toward FGFRs' in the FGFR1 comparison; cited from earlier work.
In a further test the test system is parental Ba/F3 cells. Put plainly: cells. The note with it: Mus musculus, BaF3, 72 h, read-out: IC50 proliferation, parental Ba/F3 cells. How it is done: (§1) Cell proliferation and viability were evaluated in parental Ba/F3 cells and TEL-FGFR1-4/FGFR mutation-translocated Ba/F3 cell lines.
Test [1] has as its system FGFR4-translocated Ba/F3 cells. Put plainly: cells. To be noted: Mus musculus, BaF3, 72 h, read-out: IC50 proliferation, FGFR4 Ba/F3 cells. How it is done:
as §1

The conditions of test [2]: Phase II FIGHT-202, patients; cited from earlier work.

The text below walks through data of publication PMC9814635 (Communications Chemistry, 2022).

Structures are written as SMILES. Where only a bound is given, the exact number is not on record here.

Take `CCN1CCN(c2ccc(Nc3cc(N(C)C(=O)Nc4c(Cl)c(OC)cc(OC)c4Cl)ncn3)cc2)CC1` [infigratinib, 3-(2,6-dichloro-3,5-dimethoxy-phenyl)-1-{6-[4-(4-ethyl-piperazin-1-yl)-phenylamino]-pyrimidin-4-yl}-1-methyl-urea]: the IC50 in the test with FGFR1 is […].

On to `CCN1C(=O)N(c2c(F)c(OC)cc(OC)c2F)Cc2cnc3[nH]c(CN4CCOCC4)cc3c21` [pemigatinib], for which, in the test on parental Ba/F3 cells, the IC50 is over 5000 nM. In addition, the IC50 in test [1] came out at 12 nM. In addition, in test [2], the complete responses was 2.8%, the disease control rate is 82.0% and the objective response rate is listed as 35.5%.
